Data from US5847092A (Zambon Group S.p.A., priority 1994, dated 1998).
Values after ≈ are worked out from the molar mass of the structure shown. Read-outs that look alike come from different tables or passages of the source.

What was measured:
[1] = tested on: Staphylococcus aureus PV 14; assay: In vitro antibacterial activity, MIC, broth microdilution; type: cell-based; details: Staphylococcus aureus, PV14; S. aureus PV 14; MHB; 37° C., 18 hours; read-out: minimum inhibiting concentration MIC
Experimental: (§1) a) In vitro antibacterial activity The determination of the minimum inhibiting concentrations (MIC), with respect to Gram-positive and Gram-negative bacteria was carried out through the micromethod of gradual broth dilution in double series [National Committee for Clinical Laboratory Standards, 1990; Methods for dilution antimicrobial susceptibility tests for bacteria that grow aerobically; Approved standards […], Villanova, Pa.], by using Mueller Hinton Broth (MHB) as a culture medium. In the case of […] bacteria, horse serum at 5% (Streptococcus pneumoniae and Streptococcus pyogenes) was added to the medium. Roxithromycin and Clarithromycin [The Merck Index, XI Ed., No. 8253 and 2340, respectively] were used as reference macrolides. MIC, expressed as (μg/ml), were determined after incubation of the microplates at 37° C. for 18 hours, evaluating the lowest antibiotic concentration enabling the inhibition of bacterial development.

[2] = tested on: Streptococcus pyogenes A 26; assay: as above; type: cell-based; details: Streptococcus pyogenes, A26; S. pyogenes A 26; MHB + 5% horse serum; 37° C., 18 hours; read-out: minimum inhibiting concentration MIC
Experimental: as §1

[3] = tested on: Streptococcus pneumoniae BS 3; assay: as above; type: cell-based; details: Streptococcus pneumoniae, BS3; S. pneumoniae BS 3; MHB + 5% horse serum; 37° C., 18 hours; read-out: minimum inhibiting concentration MIC
Experimental: as §1

[4] = tested on: Escherichia coli ATCC 25922; assay: as above; type: cell-based; details: Escherichia coli, ATCC25922; E. coli ATCC 25922; MHB; 37° C., 18 hours; read-out: minimum inhibiting concentration MIC
Experimental: as §1

[5] = tested on: Enterococcus faecalis ATCC 29212; assay: as above; type: cell-based; details: Enterococcus faecalis, ATCC29212; E. faecalis ATCC 29212; MHB; 37° C., 18 hours; read-out: minimum inhibiting concentration MIC
Experimental: as §1

[6] = tested on: Streptococcus pneumoniae BS 4; assay: as above; type: cell-based; details: Streptococcus pneumoniae, BS4; S. pneumoniae BS 4; MHB + 5% horse serum; 37° C., 18 hours; read-out: minimum inhibiting concentration MIC
Experimental: as §1

[7] = tested on: Streptococcus pyogenes C 203; assay: as above; type: cell-based; details: Streptococcus pyogenes, C203; S. pyogenes C 203; MHB + 5% horse serum; 37° C., 18 hours; read-out: minimum inhibiting concentration MIC
Experimental: as §1

[8] = tested on: Klebsiella pneumoniae ZC 2; assay: as above; type: cell-based; details: Klebsiella pneumoniae, ZC2; K. pneumoniae ZC 2; MHB; 37° C., 18 hours; read-out: minimum inhibiting concentration MIC
Experimental: as §1

[9] = tested on: Streptococcus pyogenes C 203; assay: In vivo antibacterial activity, experimental pulmonary infection in mouse; details: Streptococcus pyogenes, C203, ip, 240 h, intraperitoneal single dose, read-out: average protecting dose PD50
Experimental: The in vivo antibacterial activity of the compounds of formula (I), expressed as average protecting dose PD50 (mg/Kg), was evaluated by means of experimental pulmonary infection induced in mouse by Streptococcus pyogenes (example 23).
b) In vivo antibacterial activity
The therapeutical effectiveness, expressed as average protecting dose (PD50), of the considered compounds of formula (I) was evaluated by experimental pulmonary infection induced in mouse by Streptococcus pyogenesC 203.
Charles River albin mice (strain CD 1), of body weight comprised between 23-35 g, stabulated in groups of 6 for cage and normo-feeded with standard diet and water ad libitum were used. A suspension of S. pyogenes C 203 (corresponding about to 10^8 UFC) in tryptose broth (0.05 ml) was intranasally administered to each mouse anesthesized with a mixture of ethyl ether and chloroform.
The compounds under examination were intraperitoneally administered as a single dose, in 0.2% Tween suspension, 24 hours before or 1 hour after the infection.
Mice mortality observation was prolonged up to 10 days from the infection.
PD50 calculation, expressed as (mg/Kg), was carried out through the analysis of probit.
In vivo antibacterial activity, expressed as average protecting dose PD50 (mg/Kg), 24 hours before and 1 hour after the experimental pulmonary infection induced in mouse by Streptococcus pyogenes C 203, of the compounds 4, 10, 16-19, 21, 23, 26-27, 29-30, 33-35 and 38 and of the reference compounds Roxithromycin and Clarithromycin.

Compound	MIC [1] [µg/mL]	MIC [2] [µg/mL]	MIC [3] [µg/mL]	MIC [4] [µg/mL]	MIC [5] [µg/mL]	MIC [6] [µg/mL]	MIC [7] [µg/mL]	MIC [8] [µg/mL]	ED50 ([9]; 1 hour after infection) [mg/kg]	ED50 ([9]; 24 hours before infection) [mg/kg]
CC[C@H]1OC(=O)[C@H](C)[C@@H](O[C@H]2C[C@@](C)(OC)[C@@H](O)[C@H](C)O2)[C@H](C)[C@@H](O[C@@H]2O[C@H](C)C[C@H](N(C)C)[C@H]2O)[C@](C)(O)C[C@@H](C)/C(=N\OCCNCCCCCCNCc2ccc(C(F)(F)F)cc2)[C@H](C)[C@@H](O)[C@]1(C)O [Compound 23, Erythromycin A (E)-9-[0-[2-[6-[(4-trifluoromethylphenyl)methylamino]hexylamino]ethyl]oxime]]	1 (≈ 0.953 µM)	0.0156	0.0156	1 (≈ 0.953 µM)	2 (≈ 1.91 µM)	0.0078	0.0156	4 (≈ 3.81 µM)	1.46	
CC[C@H]1OC(=O)[C@H](C)[C@@H](O[C@H]2C[C@@](C)(OC)[C@@H](O)[C@H](C)O2)[C@H](C)[C@@H](O[C@@H]2O[C@H](C)C[C@H](N(C)C)[C@H]2O)[C@](C)(O)C[C@@H](C)/C(=N\OCCNCCCCCCNCc2ccc3c(c2)OCO3)[C@H](C)[C@@H](O)[C@]1(C)O [Compound 18, Erythromycin A (E)-9-[0-[2-[6-[(3,4-methylenedioxyphenyl)methylamino]hexylamino]ethyl]oxime]]	0.25 (≈ 0.244 µM)	0.0312	0.0156	2 (≈ 1.95 µM)	2 (≈ 1.95 µM)	0.0312	0.0078	16 (≈ 15.6 µM)	1.32	2.23
CC[C@H]1OC(=O)[C@H](C)[C@@H](O[C@H]2C[C@@](C)(OC)[C@@H](O)[C@H](C)O2)[C@H](C)[C@@H](O[C@@H]2O[C@H](C)C[C@H](N(C)C)[C@H]2O)[C@](C)(O)C[C@@H](C)/C(=N\OCCN(C)CCCCCCN(C)Cc2ccccc2)[C@H](C)[C@@H](O)[C@]1(C)O [Compound 38, Erythromycin A (E)-9-[0-[2-[N-methyl-6-(N'-methyl-N'-phenylmethylamino)hexylamino]ethyl]oxime]]	0.5 (≈ 0.495 µM)	0.0156	0.0078	8 (≈ 7.93 µM)	8 (≈ 7.93 µM)	0.0039	0.0078	32 (≈ 31.7 µM)	11.8	11.8
CC[C@H]1OC(=O)[C@H](C)[C@@H](O[C@H]2C[C@@](C)(OC)[C@@H](O)[C@H](C)O2)[C@H](C)[C@@H](O[C@@H]2O[C@H](C)C[C@H](N(C)C)[C@H]2O)[C@](C)(O)C[C@@H](C)/C(=N\OCCNCCCCCCNCc2ccc(F)cc2)[C@H](C)[C@@H](O)[C@]1(C)O [Compound 16, Erythromycin A (E)-9-[0-[2-[6-[(4-fluorophenyl)methylamino]hexylamino]ethyl]oxime]]	0.25 (≈ 0.25 µM)	0.0156	0.0156	2 (≈ 2 µM)	4 (≈ 4 µM)	0.0156	0.0039	8 (≈ 8.01 µM)	3.6	10.2
CC[C@H]1OC(=O)[C@H](C)[C@@H](O[C@H]2C[C@@](C)(OC)[C@@H](O)[C@H](C)O2)[C@H](C)[C@@H](O[C@@H]2O[C@H](C)C[C@H](N(C)C)[C@H]2O)[C@](C)(O)C[C@@H](C)/C(=N\OCCNCCCCCCNCc2ccc(Oc3ccccc3)cc2)[C@H](C)[C@@H](O)[C@]1(C)O [Compound 29, Erythromycin A (E)-9-[0-[2-[6-[(4-phenoxyphenyl)methylamino]hexylamino]ethyl]oxime]]	0.5 (≈ 0.466 µM)	0.0312	0.0078	1 (≈ 0.932 µM)	1 (≈ 0.932 µM)	0.0156	0.0039	2 (≈ 1.86 µM)	7.65	6.1
CC[C@H]1OC(=O)[C@H](C)[C@@H](O[C@H]2C[C@@](C)(OC)[C@@H](O)[C@H](C)O2)[C@H](C)[C@@H](O[C@@H]2O[C@H](C)C[C@H](N(C)C)[C@H]2O)[C@](C)(O)C[C@@H](C)/C(=N\OCCNCCCCCCNCc2ccccc2[N+](=O)[O-])[C@H](C)[C@@H](O)[C@]1(C)O [Compound 33, Erythromycin A (E)-9-[0-[2-[6-[(2-nitrophenyl)methylamino]hexylamino]ethyl]oxime]]	0.5 (≈ 0.487 µM)	0.0039	0.0039	4 (≈ 3.9 µM)	2 (≈ 1.95 µM)	0.0039	0.00097	16 (≈ 15.6 µM)	1.61	6.11
CCCCOc1ccc(CNCCCCCCNCCO/N=C2\[C@H](C)C[C@@](C)(O)[C@H](O[C@@H]3O[C@H](C)C[C@H](N(C)C)[C@H]3O)[C@@H](C)[C@H](O[C@H]3C[C@@](C)(OC)[C@@H](O)[C@H](C)O3)[C@@H](C)C(=O)O[C@H](CC)[C@@](C)(O)[C@H](O)[C@H]2C)cc1 [Compound 26, Erythromycin A (E)-9-[0-[2-[6-[(4-n.butoxyphenyl)methylamino]hexylamino]ethyl]oxime]]	0.25 (≈ 0.237 µM)	0.0312	0.0156	1 (≈ 0.949 µM)	1 (≈ 0.949 µM)	0.0156	0.0078	2 (≈ 1.9 µM)	6.11	6.11
CC[C@H]1OC(=O)[C@H](C)[C@@H](O[C@H]2C[C@@](C)(OC)[C@@H](O)[C@H](C)O2)[C@H](C)[C@@H](O[C@@H]2O[C@H](C)C[C@H](N(C)C)[C@H]2O)[C@](C)(O)C[C@@H](C)/C(=N\OCCNCCCCCCNCc2ccc(O)cc2)[C@H](C)[C@@H](O)[C@]1(C)O [Compound 28, Erythromycin A (E)-9-[0-[2-[6-[(4-hydroxyphenyl)methylamino]hexylamino]ethyl]oxime]]	0.125 (≈ 0.125 µM)	0.25	0.25	16 (≈ 16 µM)	16 (≈ 16 µM)	0.25	0.125	32 (≈ 32.1 µM)		
CC[C@H]1OC(=O)[C@H](C)[C@@H](O[C@H]2C[C@@](C)(OC)[C@@H](O)[C@H](C)O2)[C@H](C)[C@@H](O[C@@H]2O[C@H](C)C[C@H](N(C)C)[C@H]2O)[C@](C)(O)C[C@@H](C)/C(=N\OCCNCCCCCCNCc2ccco2)[C@H](C)[C@@H](O)[C@]1(C)O [Compound 31]	0.5 (≈ 0.515 µM)	0.0078	0.0078	4 (≈ 4.12 µM)	4 (≈ 4.12 µM)	0.0078	0.0039	16 (≈ 16.5 µM)		
CC[C@H]1OC(=O)[C@H](C)[C@@H](O[C@H]2C[C@@](C)(OC)[C@@H](O)[C@H](C)O2)[C@H](C)[C@@H](O[C@@H]2O[C@H](C)C[C@H](N(C)C)[C@H]2O)[C@](C)(O)C[C@@H](C)/C(=N\OCCCCCCNCCCCCNCc2ccccc2)[C@H](C)[C@@H](O)[C@]1(C)O [Compound 8, Erythromycin A (E)-9-[0-[6-[5-(phenylmethylamino)pentylamino]hexyl]oxime]]	0.5 (≈ 0.489 µM)	0.0312	0.25	4 (≈ 3.91 µM)	8 (≈ 7.82 µM)	0.5	0.0078	16 (≈ 15.6 µM)		
